From patent US10786477B2, “Formulations having anti-inflammatory activity and antimicrobial activity against gram-positive bacteria” (NATUREZA, INC., priority 2014, dated 2020)
Values after ≈ are worked out from the molar mass of the structure shown. Read-outs that look alike come from different tables or passages of the source.

What was measured:
E coli = test: MIC, CLSI broth microdilution M07; type: cell-based, Escherichia coli
C. difficile = test: MIC, CLSI broth microdilution M07; type: cell-based, Clostridium difficile
S. pyogenes = test: MIC, CLSI broth microdilution M07; type: cell-based, Streptococcus pyogenes
S. mitis = test: MIC, CLSI broth microdilution M07; type: cell-based, Streptococcus mitis
S. mutans = test: MIC, CLSI broth microdilution M07; type: cell-based, Streptococcus mutans
S. aureus = test: MIC, CLSI broth microdilution M07; type: cell-based, Staphylococcus aureus
S. epidemidis = test: MIC, CLSI broth microdilution M07; type: cell-based, Staphylococcus epidermidis
Lactobacillus spp. = test: MIC, CLSI broth microdilution M07; type: cell-based
Bifidobacterium = test: MIC, CLSI broth microdilution M07; type: cell-based
Candida = test: MIC of fungi, CLSI broth microdilution M27; type: cell-based
Mycobacterium = test: MIC, CLSI broth microdilution; type: cell-based; details: Table 1; active component in compositions of first example; range 0.08-5 wt.%
L. acidophilus = test: MIC, CLSI broth microdilution M07; type: cell-based; details: Lactobacillus acidophilus; Table 2; active component range 0.08-8 mg/ml; >8 = no inhibitory effect
B. bifidum = test: MIC, CLSI broth microdilution M07; type: cell-based; details: Bifidobacterium bifidum; Table 2; active component range 0.08-8 mg/ml; >8 = no inhibitory effect
C. albicans = test: MIC of fungi, CLSI broth microdilution M27; type: cell-based; details: Candida albicans; Table 2; active component range 0.08-8 mg/ml
M. bovis = test: microbe, parasite or virus in culture; type: cell-based
[1] = test system: strains of Staphylococcus; test: Bacterial growth in presence of first-example suspensions; type: cell-based, Staphylococcus spp.; details: first example: optically clear suspensions of 1 wt.% active component combined with 2% bile
Excerpt: In these examples, the optically clear suspensions were combined with 2% bile when evaluating activity against various bacteria.

bacteria = details: background, cited from earlier work; for antibacterial / antimicrobial activity: compared with lauric acid
[2] = Escherichia coli, Table 2, active component range 0.08-8 mg/ml, >8 = no inhibitory effect, read-out: MIC
[3] = Table 1, active component in compositions of first example, range 0.08-5 wt.%, >>5% = no inhibitory effect
[4] = Table 3, active component range 0.0009-8 μg/ml, values match chitosan-coated liposomes of third example
[5] = Clostridioides difficile, Table 2, active component range 0.08-8 mg/ml, read-out: MIC
[6] = Table 1, active component in compositions of first example, range 0.08-5 wt.%
[7] = Streptococcus mutans, Table 2, active component range 0.08-8 mg/ml, read-out: MIC
[8] = Staphylococcus aureus, Table 2, active component range 0.08-8 mg/ml, read-out: MIC
[9] = Mycobacterium tuberculosis variant bovis

SMILES	MIC (E coli; [2]) [µg/mL]	MIC (E coli; [3])	MIC (E coli; [4])	MIC (C. difficile; [5]) [µg/mL]	MIC (C. difficile; [6]) [%]	MIC (C. difficile; [4]) [%]	MIC (S. pyogenes; [6]) [%]	MIC (S. pyogenes; [4]) [%]	MIC (S. mitis; [6]) [%]	MIC (S. mitis; [4]) [%]	MIC (S. mutans; [7]) [µg/mL]	MIC (S. mutans; [6]) [%]	MIC (S. mutans; [4]) [%]	MIC (S. aureus; [8]) [µg/mL]	MIC (S. aureus; [6]) [%]	MIC (S. aureus; [4]) [%]	MIC (S. epidemidis; [6]) [%]	MIC (S. epidemidis; [4]) [%]	MIC (Lactobacillus spp.; [3])	MIC (Lactobacillus spp.; [4])	further results
CCCCCCCCCCCC(=O)OCC [EL, ethyl laurate]	> 8000	>>5%^	>>5%	800 (≈ 3.5 mM)	0.5	0.0018	0.5	0.0018	0.5	0.0018	800 (≈ 3.5 mM)	0.5	0.0018	800 (≈ 3.5 mM)	0.5	0.0018	0.5	0.0018	>>5%^	>>5%	MIC (Bifidobacterium; [3]): >>5%^; MIC (Bifidobacterium; [4]): >>5%; MIC (Candida; [6]): 0.5%; MIC (Candida; [4]): 0.0018%; MIC (Mycobacterium): 1%; MIC (L. acidophilus): > 8000 µg/mL; MIC (B. bifidum): > 8000 µg/mL; MIC (C. albicans): < 80 µg/mL; MIC (M. bovis; [9]): 2000 µg/mL (≈ 8.76 mM); MIC (M. bovis; [4]): 0.0018%; effect on bacterial growth [1]: completely bacteriostatic; activity relative to lauric acid (times less active) (bacteria): forty times less active; antibacterial / antimicrobial activity (bacteria): little or no antimicrobial activity
CCCCCCCCCCCC(=O)OC [ML, methyl laurate]	> 8000	>>5%^	>>5%	800 (≈ 3.73 mM)	1	0.0018	0.5	0.0018	0.5	0.0018	800 (≈ 3.73 mM)	0.5	0.0018	800 (≈ 3.73 mM)	0.5	0.0018	0.5	0.0018	>>5%^	>>5%	MIC (Bifidobacterium; [3]): >>5%^; MIC (Bifidobacterium; [4]): >>5%; MIC (Candida; [6]): 0.5%; MIC (Candida; [4]): 0.0018%; MIC (Mycobacterium): 0.5%; MIC (L. acidophilus): > 8000 µg/mL; MIC (B. bifidum): > 8000 µg/mL; MIC (C. albicans): < 80 µg/mL; MIC (M. bovis; [9]): 2000 µg/mL (≈ 9.33 mM); MIC (M. bovis; [4]): 0.0018%; effect on bacterial growth [1]: significantly retarded bacterial growth; antibacterial / antimicrobial activity (bacteria): some modest antibacterial activity in vitro
